This note sets out measurements from patent publication US20220378923A1, “BET DEGRADER” (KYOWA KIRIN CO., LTD., priority 2019, published 2022).

Test [1] deals with MYC mRNA expression in SU-DHL-4 cells. The test is described as follows: Suppressive effect on MYC mRNA expression (Test Example 2). The test is classed as cell-based, human. Conditions: test compound 100 nmol/L, 6 hours, qRT-PCR corrected by ACTB, GAPDH; for Suppression Rate of MYC mRNA Expression (%): HPRT1; for inhibition at 0.1 µM: Homo sapiens, HPRT1, read-out: Suppression Rate of MYC mRNA Expression (%). In a few lines:
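SU-DHL-4 cells were treated for 6 h at 37 °C with compound (0.1% DMSO final). MYC mRNA was measured by TaqMan qRT-PCR and normalised to the geometric mean of ACTB, GAPDH and HPRT1. Suppression was calculated relative to untreated wells.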

Test [2] has as its target T1, interaction between BRD2 and E3 ligase DCAF16 (Homo sapiens, UniProt P25440).
T1 construct: expressed in transfected cells; host or cells: HEK293
The test is described as follows: Verification of BET-DCAF16 interaction, comparative test with known compounds (Test Example 8). The test is classed as cell-based. Conditions: test compound 1.0 μmol/L; HEK293 cells expressing Nluc-BRD2 and DCAF16-HaloTag; MLN4924 instead of bortezomib; substrate diluted 200-fold. The procedure:
Cultured HEK293 cells were washed with DPBS, no calcium, no magnesium (DPBS: Code No. 14190144, Thermo Fisher Scientific) and harvested using TrypLE™ Express Enzyme (1×), phenol red (TrypLE: Code No. 12605036, Thermo Fisher Scientific), and prepared to be 4.0×10^5 cells/mL in DMEM. A volume of 12 mL of the cell suspension was seeded in a Falcon® 100 mm×20 mm cell culture dish and cultured in a carbon dioxide gas incubator at 37° C. for 6 hours. For one dish, 12 μg of pFC27K_DCAF16, 0.12 μg of p FN31A_BRD2, 48 μL of FuGENE® HD Transfection Reagent (Code No. E2312, Promega) were added to 600 μL of Opti-MEM™ I Reduced Serum Medium, no phenol red (Opti-MEM: Code No. 11058021, Thermo Fisher Scientific) and mixed. The mixture was allowed to stand for 15 minutes and added to HEK293 cells. After 20 hours, the cells were washed with DPBS, no calcium, no magnesium, harvested from the dish using TrypLE, and then neutralized in DMEM. After centrifugation, the supernatant was discarded, and the cells were prepared to be 2.2×10^5 cells/mL using Opti-MEM containing 4% FBS. HaloTag® NanoBRET™ 618 Ligand contained in NanoBRET™ Nano-Glo® Detection System (Code No. N1662, Promega) and bortezomib as a proteasome inhibitor were added to be a 1000-fold dilution. In addition, a group was prepared to which DMSO was added instead of HaloTag® NanoBRET™ 618 Ligand. 90 μL of the cell suspension was seeded in CulturPlate-96 (Code No. 6005688, PerkinElmer), and allowed to stand in a carbon dioxide gas incubator at 37° C. for 30 minutes. A volume of 10 mmol/L of a solution of the test compound in DMSO was adjusted to be 100 μmol/L with Opti-MEM, 10 μL of the solution was added to each well, and then the mixture was allowed to stand in a carbon dioxide gas incubator at 37° C. for 2 hours. At this time, all the groups were prepared so that the final concentration of DMSO was 0.1 vol % including the group to which the test compound was not added. NanoBRET™ Nano-Glo® Substrate included in the NanoBRET™ Nano-Glo® Detection System was diluted 100-fold with Opti-MEM. After adding 25 μL of the dilution each and stirring for 30 seconds, measurement was performed with an Emission Filter of 460 nm and 620 nm using EnVision (PerkinElmer). The BRET ratio of 10 μmol/L for each test compound was calculated using the following formula. The experiment was performed by n=3 and the average value was calculated.
BRET ratio={(A/B)−(C/D)}×1000 • A: value at 620 nm filter of the well with addition of test compound and 618 Ligand • B: value at 460 nm filter of the well with addition of test compound and 618 Ligand • C: value at 620 nm filter of the well without addition of test compound or 618 Ligand • D: value at 460 nm filter of the well without addition of test compound or 618 Ligand
For comparison with the known comparative compound 1, the enhancement of the BET-DCAF16 interaction was verified by the same method as in test example 7. However, for the purpose of system optimization, bortezomib was changed to Neddylation inhibitor MLN4924 (Code No. HY-10484, MedChem Express), and the dilution ratio of NanoBRET™ Nano-Glo® Substrate was set to 200-fold. The BRET ratio of 1.0 μmol/L of each test compound was calculated, and the results are shown as in Table 23 below.

T1 sequence (P25440 whole entry): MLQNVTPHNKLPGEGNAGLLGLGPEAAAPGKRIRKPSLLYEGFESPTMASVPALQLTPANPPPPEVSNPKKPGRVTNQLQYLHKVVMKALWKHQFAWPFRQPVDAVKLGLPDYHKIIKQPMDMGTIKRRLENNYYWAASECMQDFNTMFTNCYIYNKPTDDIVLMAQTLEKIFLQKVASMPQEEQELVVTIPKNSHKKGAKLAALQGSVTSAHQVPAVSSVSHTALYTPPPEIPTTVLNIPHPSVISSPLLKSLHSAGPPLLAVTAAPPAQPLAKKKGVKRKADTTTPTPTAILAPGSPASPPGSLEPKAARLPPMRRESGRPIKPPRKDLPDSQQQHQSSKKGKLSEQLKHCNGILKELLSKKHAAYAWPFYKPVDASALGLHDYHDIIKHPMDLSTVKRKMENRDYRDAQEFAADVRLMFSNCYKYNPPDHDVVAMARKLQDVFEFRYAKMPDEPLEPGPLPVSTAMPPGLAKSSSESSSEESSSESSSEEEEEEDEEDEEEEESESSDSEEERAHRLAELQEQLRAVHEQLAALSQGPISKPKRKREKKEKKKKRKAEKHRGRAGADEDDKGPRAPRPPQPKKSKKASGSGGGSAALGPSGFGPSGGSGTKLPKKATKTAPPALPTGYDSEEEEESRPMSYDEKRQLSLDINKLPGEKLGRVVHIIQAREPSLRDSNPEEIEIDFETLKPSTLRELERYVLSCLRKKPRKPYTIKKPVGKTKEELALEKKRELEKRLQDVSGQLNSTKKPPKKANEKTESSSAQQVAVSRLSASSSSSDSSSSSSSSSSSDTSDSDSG
T1 sequence (Q9NXF7 whole entry partner): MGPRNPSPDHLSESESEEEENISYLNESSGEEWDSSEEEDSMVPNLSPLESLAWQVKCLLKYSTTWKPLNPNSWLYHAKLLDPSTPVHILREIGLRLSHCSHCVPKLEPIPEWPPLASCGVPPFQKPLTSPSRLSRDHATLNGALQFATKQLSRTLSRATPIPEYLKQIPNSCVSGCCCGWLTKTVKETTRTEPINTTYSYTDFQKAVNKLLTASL

On to `CCC(=O)N1c2ccccc2[C@H](Nc2ccc(NC(=O)N3CCN(C(=O)C4CCC(N[C@@H]5C[C@H](C)N(C(=O)CC)c6ccccc65)CC4)CC3)cc2)C[C@@H]1C` (stereo partly drawn) [Compound 7p, 4-((1R,4r)-4-(((2S,4R)-2-Methyl-1-propionyl-1,2,3,4-tetrahydroquinolin-4-yl)amino)cyclohexane-1-carbonyl)-N-(4-(((2S,4R)-2-methyl-1-propionyl-1,2,3,4-tetrahydroquinolin-4-yl)amino)phenyl)piperazine-1-carboxamide], for which the “Suppression Rate of MYC mRNA Expression (%)” value in test [1] turned out to be 97.9%. Besides, the “BRET Ratio” value in test [2] turned out to be 11.57. Turning to `CCC(=O)N1c2ccccc2[C@H](Nc2ccc(-n3cc(CCNC(=O)[C@H]4CC[C@H](N[C@@H]5C[C@H](C)N(C(=O)CC)c6ccccc65)CC4)nn3)cc2)C[C@@H]1C` [Compound 8a, (1R,4r)-4-(((2S,4R)-2-Methyl-1-propionyl-1,2,3,4-tetrahydroquinolin-4-yl)amino)-N-(2-(1-(4-(((2S,4R)-2-methyl-1-propionyl-1,2,3,4-tetrahydroquinolin-4-yl)amino)phenyl)-1H-1,2,3-triazol-4-yl)ethyl)cyclohexane-1-carboxamide], the “BRET Ratio” value in test [2] came to 12.45. Still for that read-out and setting: the figure for `Cc1sc2c(c1C)C(c1ccc(C(=O)NCc3cn(-c4ccc(C5=N[C@@H](CC(=O)OC(C)(C)C)c6nnc(C)n6-c6sc(C)c(C)c65)cc4)nn3)cc1)=N[C@@H](CC(=O)OC(C)(C)C)c1nnc(C)n1-2` [Compound 3b, tert-Butyl 2-[(S)-4-(4-{4-[(4-{(S)-6-[2-(tert-butoxy)-2-oxoethyl]-2,3,9-trimethyl-6H-thieno[3,2-f][1,2,4]triazolo[4,3-a][1,4]diazepin-4-yl}benzamide)methyl]-1H-1,2,3-triazol-1-yl}phenyl)-2,3,9-trimethyl-6H-thieno[3,2-f][1,2,4]triazolo[4,3-a][1,4]diazepin-6-yl]acetate] is 9.69.

For `CCC(=O)N1c2ccccc2[C@H](Nc2ccc(C(=O)NCCCNC(=O)c3ccc(C4=N[C@@H](CC(=O)OC(C)(C)C)c5nnc(C)n5-c5sc(C)c(C)c54)cc3)cc2)C[C@@H]1C` [Compound 1h, tert-Butyl 2-[(S)-2,3,9-trimethyl-4-(4-{[3-(4-{[(2S,4R)-2-methyl-1-propionyl-1,2,3,4-tetrahydroquinolin-4-yl]amino}benzamide)propyl]carbamoyl}phenyl)-6H-thieno[3,2-f][1,2,4]triazolo[4,3-a][1,4]diazepin-6-yl]acetate], the “BRET Ratio” value in test [2] is 10.95. With `CCC(=O)N1c2ccccc2[C@H](Nc2ccc(NC(=O)CCCC(=O)NC3CCC(Cn4cc(-c5c(C)noc5C)ccc4=O)CC3)cc2)C[C@@H]1C` (stereo partly drawn) [Compound 16p, N^1-((1r,4r)-4-((5-(3,5-Dimethylisoxazol-4-yl)-2-oxopyridin-1(2H)-yl)methyl)cyclohexyl)-N5-(4-(((2S,4R)-2-methyl-1-propionyl-1,2,3,4-tetrahydroquinolin-4-yl)amino)phenyl)glutaramide], the “Suppression Rate of MYC mRNA Expression (%)” value in test [1] was 96.2%. Take `CCC(=O)N1c2ccccc2[C@H](Nc2ccc(NC(=O)CNC(=O)Nc3ccc(C4=NCc5nnc(C)n5-c5sc(C)c(C)c54)cc3)cc2)C[C@@H]1C` [Compound 14f, N-(4-(((2S,4R)-2-Methyl-1-propionyl-1,2,3,4-tetrahydroquinolin-4-yl)amino)phenyl)-2-(3-(4-(2,3,9-trimethyl-6H-thieno[3,2-f][1,2,4]triazolo[4,3-a][1,4]diazepin-4-yl)phenyl)ureido)acetamide]: in test [1], the inhibition at 0.1 µM came to 97.3%. On to `CCC(=O)N1c2ccccc2[C@H](Nc2ccc(-c3cnn(CC(=O)Nc4ccc(C5=NCc6nnc(C)n6-c6sc(C)c(C)c65)cc4)c3)cc2)C[C@@H]1C` [Compound 14a, 2-(4-(4-(((2S,4R)-2-Methyl-1-propionyl-1,2,3,4-tetrahydroquinolin-4-yl)amino)phenyl)-1H-pyrazol-1-yl)-N-(4-(2,3,9-trimethyl-6H-thieno[3,2-f][1,2,4]triazolo[4,3-a][1,4]diazepin-4-yl)phenyl)acetamide], for which, in test [1], the inhibition at 0.1 µM is 97.1%. Regarding `CCC(=O)N1c2ccccc2[C@H](Nc2ccc(C(=O)NCCCNC(=O)c3ccc(N[C@@H]4C[C@H](C)N(C(=O)CC)c5ccccc54)cc3)cc2)C[C@@H]1C` (relative stereo) [Compound 1a, N,N′-(Propane-1,3-diyl)bis(4-{[(2S*,4R*)-2-methyl-1-propionyl-1,2,3,4-tetrahydroquinolin-4-yl]amino}benzamide)], in test [1], the inhibition at 0.1 µM was determined as 96.7%. Take `CCC(=O)N1c2ccccc2[C@H](Nc2ccc(NC(=O)CCCC(=O)Nc3ccc(Cn4cc(-c5c(C)noc5C)ccc4=O)cc3)cc2)C[C@@H]1C` [Compound 17a, N^1-(4-((5-(3,5-Dimethylisoxazol-4-yl)-2-oxopyridin-1(2H)-yl)methyl)phenyl)-N5-(4-(((2S,4R)-2-methyl-1-propionyl-1,2,3,4-tetrahydroquinolin-4-yl)amino)phenyl)glutaramide]: in test [1], the inhibition at 0.1 µM came to 96.2%. `Cc1sc2c(c1C)C(c1ccc(C(=O)N3CCC(NC(=O)c4ccc(C5=N[C@@H](CC(=O)OC(C)(C)C)c6nnc(C)n6-c6sc(C)c(C)c65)cc4)CC3)cc1)=NCc1nnc(C)n1-2` [Compound 14p, tert-Butyl (S)-2-(2,3,9-trimethyl-4-(4-((1-(4-(2,3,9-trimethyl-6H-thieno[3,2-f][1,2,4]triazolo[4,3-a][1,4]diazepin-4-yl)benzoyl)piperidin-4-yl)carbamoyl)phenyl)-6H-thieno[3,2-f][1,2,4]triazolo[4,3-a][1,4]diazepin-6-yl)acetate]: the inhibition at 0.1 µM in test [1] stood at 97.6%.

As for `CCC(=O)N1c2ccccc2[C@H](Nc2ccc(NC(=O)C3CN(C(=O)C4CCN(Cc5cc(O)cc(-c6c(C)noc6C)c5)CC4)C3)cc2)C[C@@H]1C` [Compound 12b, 1-(1-(3-(3,5-Dimethylisoxazol-4-yl)-5-hydroxybenzyl)piperidine-4-carbonyl)-N-(4-(((2S,4R)-2-methyl-1-propionyl-1,2,3,4-tetrahydroquinolin-4-yl)amino)phenyl)azetidine-3-carboxamide], the inhibition at 0.1 µM in test [1] is 97.8%.

For the compound `Cc1sc2c(c1C)C(c1ccc(NC(=O)C#CCNC(=O)c3ccc(C4=NCc5nnc(C)n5-c5sc(C)c(C)c54)cc3)cc1)=NCc1nnc(C)n1-2` [Compound 14e, N-(4-Oxo-4-((4-(2,3,9-trimethyl-6H-thieno[3,2-f][1,2,4]triazolo[4,3-a][1,4]diazepin-4-yl)phenyl)amino)but-2-yn-1-yl)-4-(2,3,9-trimethyl-6H-thieno[3,2-f][1,2,4]triazolo[4,3-a][1,4]diazepin-4-yl)benzamide], in test [1], the inhibition at 0.1 µM came out at 96.7%. Consider `CCC(=O)N1c2ccccc2[C@H](Nc2ccc(NC(=O)CCNC(=O)c3ccc(N[C@@H]4C[C@H](C)N(C(=O)CC)c5ccccc54)cc3)cc2)C[C@@H]1C` (relative stereo) [Compound 2f, 4-{[(2S,4R)-2-Methyl-1-propionyl-1,2,3,4-tetrahydroquinolin-4-yl]amino}-N-{3-[(4-{[(2S*,4R*)-2-methyl-1-propionyl-1,2,3,4-tetrahydroquinolin-4-yl]amino}phenyl)amino]-3-oxopropyl}benzamide], for which the inhibition at 0.1 µM in test [1] came out at 98.6%.
